Legend:
lambsquarters [1] = test: Test Example 5: herbicidal effect by foliage application, plastic box (Table 20, symbol O); type: in vivo, lambsquarters (Chenopodium album); details: foliage application, 320 g/ha
In short: (§1)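 Foliar spray test: emulsion formulation diluted in water to a set application rate, sprayed onto 14-day-old plants raised in diluvial soil at 25° C to 30° C under glass. Both herbicidal effect and crop effect rated visually three weeks later.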

green foxtail [2] = test: Test Example 4: herbicidal effect by soil treatment (Table 19, symbol G); type: in vivo, green foxtail (Setaria viridis)
In short: (§2)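 Herbicidal effect was rated 3 weeks after treatment, using the scoring criteria of an earlier test. The compound, formulated as an emulsion and diluted in water to a set herbicide amount, had been sprayed uniformly on soil over freshly sown seeds. Growth took place in a greenhouse at 25° C. to 30° C.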

blackgrass [3] = test: Test Example 4: herbicidal effect by soil treatment (Table 19, symbol J); type: in vivo, blackgrass (Alopecurus myosuroides)
In short: as §2

persian speedwell [4] = test: Test Example 5: herbicidal effect by foliage application, plastic box (Table 20, symbol R); type: in vivo, Persian speedwell (Veronica persica); details: foliage application, 320 g/ha
In short: as §1

velvetleaf [5] = test: Test Example 4: herbicidal effect by soil treatment (Table 19, symbol M); type: in vivo, velvetleaf (Abutilon theophrasti)
In short: as §2

windgrass [6] = test: Test Example 5: herbicidal effect by foliage application, plastic box (Table 20, symbol L); type: in vivo, windgrass (Apera spica-venti); details: foliage application, 320 g/ha
In short: as §1

southern crabgrass [7] = test: Test Example 5: herbicidal effect by foliage application, plastic box (Table 20, symbol F); type: in vivo, southern crabgrass (Digitaria ciliaris); details: foliage application, 320 g/ha
In short: as §1

Chinese sprangletop = test: Test Example 3: herbicidal effect by foliage application, Wagner pot (Table 18, symbol D); type: in vivo, chinese sprangletop (Leptochloa chinensis)
In short: (§3)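 Plants were sown in alluvial soil held under 0.1–0.5 cm standing water and grown 14 days in a greenhouse at 25–30 °C. An emulsifiable formulation, water-diluted to the set dose, was then sprayed onto the foliage, and effects were scored three weeks later using previously defined criteria.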

green foxtail [8] = test: Test Example 5: herbicidal effect by foliage application, plastic box (Table 20, symbol G); type: in vivo, green foxtail (Setaria viridis); details: foliage application, 320 g/ha
In short: as §1

blackgrass [9] = test: Test Example 5: herbicidal effect by foliage application, plastic box (Table 20, symbol J); type: in vivo, blackgrass (Alopecurus myosuroides); details: foliage application, 320 g/ha
In short: as §1

Italian ryegrass [10] = test: Test Example 4: herbicidal effect by soil treatment (Table 19, symbol K); type: in vivo, Italian ryegrass (Lolium multiflorum)
In short: as §2

southern crabgrass [11] = test: Test Example 4: herbicidal effect by soil treatment (Table 19, symbol F); type: in vivo, southern crabgrass (Digitaria ciliaris)
In short: as §2

lambsquarters [12] = test: Test Example 4: herbicidal effect by soil treatment (Table 19, symbol O); type: in vivo, lambsquarters (Chenopodium album)
In short: as §2

Italian ryegrass [13] = test: Test Example 5: herbicidal effect by foliage application, plastic box (Table 20, symbol K); type: in vivo, Italian ryegrass (Lolium multiflorum); details: foliage application, 320 g/ha
In short: as §1

wild oat [14] = test: Test Example 4: herbicidal effect by soil treatment (Table 19, symbol I); type: in vivo, wild oat (Avena fatua)
In short: as §2

persian speedwell [15] = test: Test Example 4: herbicidal effect by soil treatment (Table 19, symbol R); type: in vivo, Persian speedwell (Veronica persica)
In short: as §2

redroot pigweed [16] = test: Test Example 4: herbicidal effect by soil treatment (Table 19, symbol N); type: in vivo, redroot pigweed (Amaranthus retroflexus)
In short: as §2

chickweed [17] = test: Test Example 4: herbicidal effect by soil treatment (Table 19, symbol P); type: in vivo, common chickweed (Stellaria media); details: 320 g/ha
In short: as §2

barnyard grass [18] = test: Test Example 4: herbicidal effect by soil treatment (Table 19, symbol H); type: in vivo, barnyard grass (Echinochloa crus-galli)
In short: as §2

barnyard grass [19] = test: Test Example 3: herbicidal effect by foliage application, Wagner pot (Table 18, symbol H); type: in vivo, barnyard grass (Echinochloa crus-galli)
In short: as §3

windgrass [20] = test: Test Example 4: herbicidal effect by soil treatment (Table 19, symbol L); type: in vivo, windgrass (Apera spica-venti)
In short: as §2

barnyard grass [21] = test: Test Example 5: herbicidal effect by foliage application, plastic box (Table 20, symbol H); type: in vivo, barnyard grass (Echinochloa crus-galli); details: foliage application, 320 g/ha
In short: as §1

rice flat sedge = test: Test Example 3: herbicidal effect by foliage application, Wagner pot (Table 18, symbol E); type: in vivo, rice flat sedge (Cyperus iria)
In short: as §3

velvetleaf [22] = test: Test Example 5: herbicidal effect by foliage application, plastic box (Table 20, symbol M); type: in vivo, velvetleaf (Abutilon theophrasti); details: foliage application, 320 g/ha
In short: as §1

wild oat [23] = test: Test Example 5: herbicidal effect by foliage application, plastic box (Table 20, symbol I); type: in vivo, wild oat (Avena fatua); details: foliage application, 320 g/ha
In short: as §1

redroot pigweed [24] = test: Test Example 5: herbicidal effect by foliage application, plastic box (Table 20, symbol N); type: in vivo, redroot pigweed (Amaranthus retroflexus); details: foliage application, 320 g/ha, evaluated three weeks after application
In short: as §1

chickweed [25] = test: Test Example 5: herbicidal effect by foliage application, plastic box (Table 20, symbol P); type: in vivo, common chickweed (Stellaria media); details: foliage application, 320 g/ha, evaluated three weeks after application
In short: as §1

[26] = evaluated three weeks after application
[27] = amount of applied herbicide 320 g/ha

`Cc1nn(C)c(=O)c(-c2c(-c3ccc(OC(F)(F)F)cc3)sc3ccc(F)cc23)c1O` [2-045] was tested, and the “effect on lambsquarters (O)” value (lambsquarters [1]; 3 weeks after application) was 5 (Herbicidal rate of 90% or more (almost completely withered)), the “herbicidal effect rating, G: green foxtail” value (green foxtail [2]; 320 g/ha) was 4 (Herbicidal rate of 70% or more and less than 90%) and the “herbicidal effect rating, J: blackgrass” value (blackgrass [3]; 320 g/ha) was 0 (Herbicidal rate of 5% or less (almost no effect)). The “effect on persian speedwell (R)” value (persian speedwell [4]; 3 weeks after application) was 5 (Herbicidal rate of 90% or more (almost completely withered)), the “herbicidal effect rating, M: velvetleaf” value (velvetleaf [5]; 320 g/ha) was 4 (Herbicidal rate of 70% or more and less than 90%) and the “effect on windgrass (L)” value (windgrass [6]; 3 weeks after application) was 5 (Herbicidal rate of 90% or more (almost completely withered)). The “effect on southern crabgrass (F)” value (southern crabgrass [7]; 3 weeks after application) was 0 (Herbicidal rate of 5% or less (almost no effect)), the “herbicidal effect on D (Chinese sprangletop), rating 0-5” value (Chinese sprangletop; 320 g/ha) was 2 (Herbicidal rate of 20% or more and less than 40%) and the “effect on green foxtail (G)” value (green foxtail [8]; 3 weeks after application) was 5 (Herbicidal rate of 90% or more (almost completely withered)). For the same compound, the “effect on blackgrass (J)” value (blackgrass [9]; 3 weeks after application) was 0 (Herbicidal rate of 5% or less (almost no effect)), the “herbicidal effect rating, K: Italian ryegrass” value (Italian ryegrass [10]; 320 g/ha) was 5 (Herbicidal rate of 90% or more (almost completely withered)) and the “herbicidal effect rating, F: southern crabgrass” value (southern crabgrass [11]; 320 g/ha) was 3 (Herbicidal rate of 40% or more and less than 70%). The “herbicidal effect rating, O: lambsquarters” value (lambsquarters [12]; 320 g/ha) was 5 (Herbicidal rate of 90% or more (almost completely withered)), the “effect on Italian ryegrass (K)” value (Italian ryegrass [13]; 3 weeks after application) was 5 (Herbicidal rate of 90% or more (almost completely withered)) and the “herbicidal effect rating, I: wild oat” value (wild oat [14]; 320 g/ha) was 0 (Herbicidal rate of 5% or less (almost no effect)). The “herbicidal effect rating, R: persian speedwell” value (persian speedwell [15]; 320 g/ha) was 5 (Herbicidal rate of 90% or more (almost completely withered)), the “herbicidal effect rating, N: redroot pigweed” value (redroot pigweed [16]; 320 g/ha) was 4 (Herbicidal rate of 70% or more and less than 90%) and the “herbicidal effect rating, P: chickweed” value (chickweed [17]) was 5 (Herbicidal rate of 90% or more (almost completely withered)). The “herbicidal effect rating, H: barnyard grass” value (barnyard grass [18]; 320 g/ha) was 1 (Herbicidal rate of 5% or more and less than 20%), the “herbicidal effect on H (barnyard grass), rating 0-5” value (barnyard grass [19]; 320 g/ha) was 5 (Herbicidal rate of 90% or more (almost completely withered)) and the “herbicidal effect rating, L: windgrass” value (windgrass [20]; 320 g/ha) was 0 (Herbicidal rate of 5% or less (almost no effect)). The “effect on barnyard grass (H)” value (barnyard grass [21]; 3 weeks after application) was 5 (Herbicidal rate of 90% or more (almost completely withered)), the “herbicidal effect on E (rice flat sedge), rating 0-5” value (rice flat sedge; 320 g/ha) was 5 (Herbicidal rate of 90% or more (almost completely withered)) and the “effect on velvetleaf (M)” value (velvetleaf [22]; 3 weeks after application) was 5 (Herbicidal rate of 90% or more (almost completely withered)). For the same compound, the “effect on wild oat (I)” value (wild oat [23]; 3 weeks after application) was 0 (Herbicidal rate of 5% or less (almost no effect)).

In the case of `CCCC(=O)Oc1c(C)nn(C)c(=O)c1-c1c(-c2cccc(OC(C)C)c2)sc2ccc(F)cc12` [2-216], the “herbicidal effect on O: lambsquarters (criteria 0-5)” value (lambsquarters [1]; [26]) is reported as 3 (Herbicidal rate of 40% or more and less than 70%), the “G: green foxtail, herbicidal effect rating” value (green foxtail [2]; [27]) is reported as 2 (Herbicidal rate of 20% or more and less than 40%) and the “J: blackgrass, herbicidal effect rating” value (blackgrass [3]; [27]) is reported as 0 (Herbicidal rate of 5% or less (almost no effect)). The “herbicidal effect on R: persian speedwell (criteria 0-5)” value (persian speedwell [4]; [26]) was 5 (Herbicidal rate of 90% or more (almost completely withered)), the “M: velvetleaf, herbicidal effect rating” value (velvetleaf [5]; [27]) was 2 (Herbicidal rate of 20% or more and less than 40%) and the “herbicidal effect on L: windgrass (criteria 0-5)” value (windgrass [6]; [26]) was 3 (Herbicidal rate of 40% or more and less than 70%). The “herbicidal effect on F: southern crabgrass (criteria 0-5)” value (southern crabgrass [7]; [26]) was 5 (Herbicidal rate of 90% or more (almost completely withered)), the “herbicidal effect on D: Chinese sprangletop” value (Chinese sprangletop; [27]) was 3 (Herbicidal rate of 40% or more and less than 70%) and the “herbicidal effect on G: green foxtail (criteria 0-5)” value (green foxtail [8]; [26]) was 5 (Herbicidal rate of 90% or more (almost completely withered)). For the same compound, the “herbicidal effect on J: blackgrass (criteria 0-5)” value (blackgrass [9]; [26]) was 0 (Herbicidal rate of 5% or less (almost no effect)), the “K: Italian ryegrass, herbicidal effect rating” value (Italian ryegrass [10]; [27]) was 4 (Herbicidal rate of 70% or more and less than 90%) and the “F: southern crabgrass, herbicidal effect rating” value (southern crabgrass [11]; [27]) was 3 (Herbicidal rate of 40% or more and less than 70%). For the same compound, the “O: lambsquarters, herbicidal effect rating” value (lambsquarters [12]; [27]) was 0 (Herbicidal rate of 5% or less (almost no effect)), the “herbicidal effect on N: redroot pigweed (criteria 0-5)” value (redroot pigweed [24]) was 5 (Herbicidal rate of 90% or more (almost completely withered)) and the “herbicidal effect on K: Italian ryegrass (criteria 0-5)” value (Italian ryegrass [13]; [26]) was 4 (Herbicidal rate of 70% or more and less than 90%). The “I: wild oat, herbicidal effect rating” value (wild oat [14]; [27]) was 0 (Herbicidal rate of 5% or less (almost no effect)), the “R: persian speedwell, herbicidal effect rating” value (persian speedwell [15]; [27]) was 5 (Herbicidal rate of 90% or more (almost completely withered)) and the “N: redroot pigweed, herbicidal effect rating” value (redroot pigweed [16]; [27]) was 3 (Herbicidal rate of 40% or more and less than 70%). For the same compound, the “herbicidal effect on P: chickweed (criteria 0-5)” value (chickweed [25]) was 5 (Herbicidal rate of 90% or more (almost completely withered)), the “H: barnyard grass, herbicidal effect rating” value (barnyard grass [18]; [27]) was 2 (Herbicidal rate of 20% or more and less than 40%) and the “herbicidal effect on H: barnyard grass” value (barnyard grass [19]; [27]) was 5 (Herbicidal rate of 90% or more (almost completely withered)). The “L: windgrass, herbicidal effect rating” value (windgrass [20]; [27]) was 0 (Herbicidal rate of 5% or less (almost no effect)), the “herbicidal effect on H: barnyard grass (criteria 0-5)” value (barnyard grass [21]; [26]) was 4 (Herbicidal rate of 70% or more and less than 90%) and the “herbicidal effect on E: rice flat sedge” value (rice flat sedge; [27]) was 4 (Herbicidal rate of 70% or more and less than 90%). The “herbicidal effect on M: velvetleaf (criteria 0-5)” value (velvetleaf [22]; [26]) was 3 (Herbicidal rate of 40% or more and less than 70%) and the “herbicidal effect on I: wild oat (criteria 0-5)” value (wild oat [23]; [26]) was 0 (Herbicidal rate of 5% or less (almost no effect)).
